From PubChem BioAssay (NCI)
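48-hour exposure; five concentrations; linearly interpolated endpoints. At the GI50, growth is halved. TGI marks complete inhibition of growth.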

How the values were obtained:
Test in all cases: inhibition of tumour cell growth, NCI panel, 48 h
HL-60(TB) leukemia = system: HL-60(TB) leukemia
RPMI-8226 leukemia = system: RPMI-8226 leukemia
HT29 colon = system: HT29 colon
MDA-MB-468 breast = system: MDA-MB-468 breast
SF-295 CNS = system: SF-295 CNS
SN12C renal = system: SN12C renal
SNB-19 CNS = system: SNB-19 CNS
OVCAR-3 ovarian = system: OVCAR-3 ovarian
MOLT-4 leukemia = system: MOLT-4 leukemia
LOX IMVI melanoma = system: LOX IMVI melanoma
HS 578T breast = system: HS 578T breast
MCF7 breast = system: MCF7 breast
MALME-3M melanoma = system: MALME-3M melanoma
COLO 205 colon = system: COLO 205 colon
OVCAR-8 ovarian = system: OVCAR-8 ovarian
CCRF-CEM leukemia = system: CCRF-CEM leukemia
SK-MEL-5 melanoma = system: SK-MEL-5 melanoma
M14 melanoma = system: M14 melanoma
HCT-15 colon = system: HCT-15 colon
MDA-MB-435 = system: MDA-MB-435
IGROV1 ovarian = system: IGROV1 ovarian
786-0 renal = system: 786-0 renal
SW-620 colon = system: SW-620 colon
PC-3 prostate = system: PC-3 prostate
DU-145 prostate = system: DU-145 prostate
K-562 leukemia = system: K-562 leukemia
OVCAR-4 ovarian = system: OVCAR-4 ovarian
NCI/ADR-RES ovarian = system: NCI/ADR-RES ovarian
SF-268 CNS = system: SF-268 CNS
A549 NSCLC = system: A549 NSCLC
HOP-92 NSCLC = system: HOP-92 NSCLC
SF-539 CNS = system: SF-539 CNS
HCC-2998 colon = system: HCC-2998 colon
U251 CNS = system: U251 CNS
ACHN renal = system: ACHN renal
NCI-H460 lung = system: NCI-H460 lung
NCI-H23 lung = system: NCI-H23 lung
UACC-257 melanoma = system: UACC-257 melanoma
HCT-116 colon = system: HCT-116 colon
EKVX NSCLC = system: EKVX NSCLC
T-47D breast = system: T-47D breast
A498 renal = system: A498 renal
OVCAR-5 ovarian = system: OVCAR-5 ovarian
RXF 393 renal = system: RXF 393 renal
SK-MEL-28 melanoma = system: SK-MEL-28 melanoma
CAKI-1 renal = system: CAKI-1 renal
SK-OV-3 ovarian = system: SK-OV-3 ovarian
SNB-75 CNS = system: SNB-75 CNS
NCI-H226 lung = system: NCI-H226 lung
SK-MEL-2 melanoma = system: SK-MEL-2 melanoma
UO-31 renal = system: UO-31 renal
BT-549 breast = system: BT-549 breast
NCI-H522 lung = system: NCI-H522 lung
HOP-62 NSCLC = system: HOP-62 NSCLC
TK-10 renal = system: TK-10 renal
UACC-62 melanoma = system: UACC-62 melanoma
SR leukemia = system: SR leukemia
KM12 colon = system: KM12 colon
MDA-MB-231 breast = system: MDA-MB-231 breast

COc1cnc2c(c1)C(=O)c1c-2n(CCCNCCO)c(=O)c2cc(F)ccc12
GI50 (HL-60(TB) leukemia): 0.19 µM
TGI (HL-60(TB) leukemia): 1.37 µM
GI50 (RPMI-8226 leukemia): 0.25 µM
TGI (RPMI-8226 leukemia): 1.88 µM
GI50 (HT29 colon): 0.3 µM
TGI (HT29 colon): 1.38 µM
GI50 (MDA-MB-468 breast): 0.16 µM
TGI (MDA-MB-468 breast): 0.351 µM
GI50 (SF-295 CNS): 0.306 µM
TGI (SF-295 CNS): 1.23 µM
GI50 (SN12C renal): 0.287 µM
TGI (SN12C renal): 1.56 µM
GI50 (SNB-19 CNS): 0.666 µM
TGI (SNB-19 CNS): 8.06 µM
GI50 (OVCAR-3 ovarian): 0.819 µM
TGI (OVCAR-3 ovarian): 6.51 µM
GI50 (MOLT-4 leukemia): 0.174 µM
TGI (MOLT-4 leukemia): 0.757 µM
GI50 (LOX IMVI melanoma): 0.167 µM
TGI (LOX IMVI melanoma): 0.502 µM
GI50 (HS 578T breast): 2.02 µM
TGI (HS 578T breast): 12.4 µM
GI50 (MCF7 breast): 0.101 µM
TGI (MCF7 breast): 1.7 µM
GI50 (MALME-3M melanoma): 0.851 µM
TGI (MALME-3M melanoma): 2.56 µM
GI50 (COLO 205 colon): 0.838 µM
TGI (COLO 205 colon): 2.77 µM
GI50 (OVCAR-8 ovarian): 0.555 µM
TGI (OVCAR-8 ovarian): 2.79 µM
GI50 (CCRF-CEM leukemia): 0.206 µM
TGI (CCRF-CEM leukemia): 0.966 µM
GI50 (SK-MEL-5 melanoma): 0.477 µM
TGI (SK-MEL-5 melanoma): 1.64 µM
GI50 (M14 melanoma): 0.589 µM
TGI (M14 melanoma): 2.41 µM
GI50 (HCT-15 colon): 0.328 µM
TGI (HCT-15 colon): 1.56 µM
GI50 (MDA-MB-435): 1.27 µM
TGI (MDA-MB-435): 4.52 µM
GI50 (IGROV1 ovarian): 0.51 µM
TGI (IGROV1 ovarian): 2.68 µM
GI50 (786-0 renal): 0.277 µM
TGI (786-0 renal): 0.962 µM
GI50 (SW-620 colon): 0.367 µM
TGI (SW-620 colon): 2.61 µM
GI50 (PC-3 prostate): 0.667 µM
TGI (PC-3 prostate): 10.5 µM
GI50 (DU-145 prostate): 0.287 µM
TGI (DU-145 prostate): 3.59 µM
GI50 (K-562 leukemia): 0.28 µM
TGI (K-562 leukemia): 6.05 µM
GI50 (OVCAR-4 ovarian): 1.71 µM
TGI (OVCAR-4 ovarian): 8.65 µM
GI50 (NCI/ADR-RES ovarian): 0.678 µM
TGI (NCI/ADR-RES ovarian): 2.58 µM
GI50 (SF-268 CNS): 1.2 µM
TGI (SF-268 CNS): 11 µM
GI50 (A549 NSCLC): 0.198 µM
TGI (A549 NSCLC): 1.1 µM
GI50 (HOP-92 NSCLC): 1.66 µM
TGI (HOP-92 NSCLC): 7.26 µM
GI50 (SF-539 CNS): 0.326 µM
TGI (SF-539 CNS): 1.22 µM
GI50 (HCC-2998 colon): 0.549 µM
TGI (HCC-2998 colon): 1.7 µM
GI50 (U251 CNS): 0.268 µM
TGI (U251 CNS): 3.24 µM
GI50 (ACHN renal): 0.175 µM
TGI (ACHN renal): 0.465 µM
GI50 (NCI-H460 lung): 0.198 µM
TGI (NCI-H460 lung): 0.908 µM
GI50 (NCI-H23 lung): 0.259 µM
TGI (NCI-H23 lung): 0.785 µM
GI50 (UACC-257 melanoma): 2.13 µM
TGI (UACC-257 melanoma): 7.97 µM
GI50 (HCT-116 colon): 0.183 µM
TGI (HCT-116 colon): 0.657 µM
GI50 (EKVX NSCLC): 1.21 µM
TGI (EKVX NSCLC): 5.14 µM
GI50 (T-47D breast): 0.269 µM
TGI (T-47D breast): 1.55 µM
GI50 (A498 renal): 1.44 µM
TGI (A498 renal): 7.88 µM
GI50 (OVCAR-5 ovarian): 0.661 µM
TGI (OVCAR-5 ovarian): 2.42 µM
GI50 (RXF 393 renal): 0.885 µM
TGI (RXF 393 renal): 2.54 µM
GI50 (SK-MEL-28 melanoma): 1.92 µM
TGI (SK-MEL-28 melanoma): 5.69 µM
GI50 (CAKI-1 renal): 0.22 µM
TGI (CAKI-1 renal): 1.68 µM
GI50 (SK-OV-3 ovarian): 0.668 µM
TGI (SK-OV-3 ovarian): 2.45 µM
GI50 (SNB-75 CNS): 0.778 µM
TGI (SNB-75 CNS): 5.31 µM
GI50 (NCI-H226 lung): 0.452 µM
TGI (NCI-H226 lung): 1.32 µM
GI50 (SK-MEL-2 melanoma): 2.36 µM
TGI (SK-MEL-2 melanoma): 4.36 µM
GI50 (UO-31 renal): 0.195 µM
TGI (UO-31 renal): 1.17 µM
GI50 (BT-549 breast): 0.969 µM
TGI (BT-549 breast): 4.04 µM
GI50 (NCI-H522 lung): 0.42 µM
TGI (NCI-H522 lung): 1.83 µM
GI50 (HOP-62 NSCLC): 0.207 µM
TGI (HOP-62 NSCLC): 0.605 µM
GI50 (TK-10 renal): 1.47 µM
TGI (TK-10 renal): 4.18 µM
GI50 (UACC-62 melanoma): 0.496 µM
TGI (UACC-62 melanoma): 1.83 µM
GI50 (SR leukemia): 0.0971 µM
GI50 (KM12 colon): 0.872 µM
TGI (KM12 colon): 10.5 µM
GI50 (MDA-MB-231 breast): 1.64 µM
TGI (MDA-MB-231 breast): 4.1 µM
